Source: ChEMBL document CHEMBL3124804, “Discovery of a cyclopentylamine as an orally active dual NK1 receptor antagonist-serotonin reuptake transporter inhibitor” (Bioorg Med Chem Lett, 2014)
The source made the active and inactive calls. The rule behind the calls is not given here.

Experiments:
[1] = Drug uptake in gerbil brain at 30 mg/kg, po; type: ADME, organism-based; set-up: dose 30 mg/kg, route oral; settings: gerbillinae, in vivo, read-out: Drug uptake
[2] = Plasma concentration in gerbil at 30 mg/kg, po; type: ADME, organism-based; set-up: dose 30 mg/kg, route oral; settings: gerbillinae, in vivo
[3] = system: Gerbillinae; test: Neurotoxicity in gerbil assessed as increase in spontaneous locomotor activity at 30 mg/kg, po relative to vehicle-treated control; type: toxicity, organism-based; set-up: dose 30 mg/kg, route oral; settings: in vivo
[4] = system: Gerbillinae; test: Antidepressant activity in gerbil assessed as reduction of immobility time at 30 mg/kg, po administered 30 mins prior to testing measured over 6 mins by forced swimming test relative to vehicle-treated control; type: functional, organism-based; set-up: dose 30 mg/kg
[5] = system: Gerbillinae; test: Antidepressant activity in gerbil assessed as reduction of immobility time at 3 to 10 mg/kg, po administered 30 mins prior to testing measured over 6 mins by forced swimming test relative to vehicle-treated control; type: functional, organism-based
[6] = biological target: Sodium-dependent serotonin transporter (Homo sapiens, UniProt P31645); test: Inhibition of human SERT
Chain of Sodium-dependent serotonin transporter (P31645 whole entry): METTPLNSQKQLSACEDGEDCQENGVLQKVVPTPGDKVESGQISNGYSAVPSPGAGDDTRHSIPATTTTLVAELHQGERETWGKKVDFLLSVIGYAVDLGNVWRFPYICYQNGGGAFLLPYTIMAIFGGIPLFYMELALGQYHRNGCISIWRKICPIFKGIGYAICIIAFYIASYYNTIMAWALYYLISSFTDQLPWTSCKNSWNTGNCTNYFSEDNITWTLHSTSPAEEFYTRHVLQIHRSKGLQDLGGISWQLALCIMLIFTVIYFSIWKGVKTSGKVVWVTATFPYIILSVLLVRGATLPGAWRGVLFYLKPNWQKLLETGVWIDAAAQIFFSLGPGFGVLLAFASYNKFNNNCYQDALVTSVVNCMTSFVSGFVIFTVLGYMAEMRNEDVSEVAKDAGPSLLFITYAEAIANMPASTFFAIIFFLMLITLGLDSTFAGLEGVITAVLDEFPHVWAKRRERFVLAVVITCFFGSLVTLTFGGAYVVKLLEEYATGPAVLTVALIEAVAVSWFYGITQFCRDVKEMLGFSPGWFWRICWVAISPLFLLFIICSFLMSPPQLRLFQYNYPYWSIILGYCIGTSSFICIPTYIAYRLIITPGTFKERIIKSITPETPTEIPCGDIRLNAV

[7] = biological target: Substance-P receptor (Homo sapiens, UniProt P25103); test: Antagonist activity at human NK1 receptor
Chain of Substance-P receptor (P25103 whole entry): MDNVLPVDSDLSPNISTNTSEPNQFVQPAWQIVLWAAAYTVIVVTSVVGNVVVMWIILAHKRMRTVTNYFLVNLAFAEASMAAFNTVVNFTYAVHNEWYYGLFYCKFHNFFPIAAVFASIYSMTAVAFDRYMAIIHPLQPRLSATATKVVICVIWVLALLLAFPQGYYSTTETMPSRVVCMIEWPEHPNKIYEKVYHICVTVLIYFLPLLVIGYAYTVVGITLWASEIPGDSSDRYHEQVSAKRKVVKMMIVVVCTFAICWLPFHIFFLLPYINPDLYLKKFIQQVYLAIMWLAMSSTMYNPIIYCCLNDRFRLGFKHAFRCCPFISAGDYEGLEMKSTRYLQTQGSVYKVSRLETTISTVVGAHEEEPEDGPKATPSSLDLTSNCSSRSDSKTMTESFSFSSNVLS

Compound	IC50 [6] [nM]	IC50 [7] [nM]	other results
N[C@H]1CC[C@@](COCc2cc(C(F)(F)F)cc(C(F)(F)F)c2)(c2ccccc2)C1	4.7	7.5	concentration [1]: 7.4 µM; concentration [2]: 0.3 µM; Activity [3]: Non-toxic; Activity [4]: Active; Activity [5]: inactive
N[C@@H]1CC[C@](COCc2cc(C(F)(F)F)cc(C(F)(F)F)c2)(c2ccccc2)C1	210	31	–
N[C@H]1CC[C@](COCc2cc(C(F)(F)F)cc(C(F)(F)F)c2)(c2ccccc2)C1	350	19	–
N[C@@H]1CC[C@@](COCc2cc(C(F)(F)F)cc(C(F)(F)F)c2)(c2ccccc2)C1	130	11	–
FC(F)(F)c1cc(COCC2(c3ccccc3)CCC(N3CCOCC3)CC2)cc(C(F)(F)F)c1 (mixture of isomers)	> 1000	350	–
CN1CCN(C2CCC(COCc3cc(C(F)(F)F)cc(C(F)(F)F)c3)(c3ccccc3)CC2)CC1 (mixture of isomers)	520	120	–
CCNC1CCC(COCc2cc(C(F)(F)F)cc(C(F)(F)F)c2)(c2ccccc2)CC1 (mixture of isomers)	150	14	–
FC(F)(F)c1cc(COCC2(c3ccccc3)CCC(NC3CC3)CC2)cc(C(F)(F)F)c1 (mixture of isomers)	680	74	–
CN(C)C1CCC(COCc2cc(C(F)(F)F)cc(C(F)(F)F)c2)(c2ccccc2)CC1 (mixture of isomers)	250	48	–
CCN(CC)C1CCC(COCc2cc(C(F)(F)F)cc(C(F)(F)F)c2)(c2ccccc2)CC1 (mixture of isomers)	280	38	–
FC(F)(F)c1cc(COCC2(c3ccccc3)CCC(N3CCCC3)CC2)cc(C(F)(F)F)c1 (mixture of isomers)	> 1000	120	–
FC(F)(F)c1cc(COCC2(c3ccccc3)CCC(N3CCCCC3)CC2)cc(C(F)(F)F)c1 (mixture of isomers)	970	93	–
CN(C)C1CCC(COCc2cc(C(F)(F)F)cc(C(F)(F)F)c2)(c2ccccc2)C1 (mixture of isomers)	57	8	–
CC(C)N(C(C)C)C1CCC(COCc2cc(C(F)(F)F)cc(C(F)(F)F)c2)(c2ccccc2)C1 (mixture of isomers)	> 1000	470	–
FC(F)(F)c1cc(COCC2(c3ccccc3)CCC(NC3CC3)C2)cc(C(F)(F)F)c1 (mixture of isomers)	530	16	–
COCCN(C)C1CCC(COCc2cc(C(F)(F)F)cc(C(F)(F)F)c2)(c2ccccc2)C1 (mixture of isomers)	> 1000	20	–
FC(F)(F)c1cc(COCC2(c3ccccc3)CCC(N3CCCC3)C2)cc(C(F)(F)F)c1 (mixture of isomers)	> 1000	14	–
FC(F)(F)c1cc(COCC2(c3ccccc3)CCC(N3CCCCC3)C2)cc(C(F)(F)F)c1 (mixture of isomers)	> 1000	4.7	–
FC(F)(F)c1cc(COCC2(c3ccccc3)CCC(N3CCOCC3)C2)cc(C(F)(F)F)c1 (mixture of isomers)	> 1000	45	–
CNC1CCC(COCc2cc(C(F)(F)F)cc(C(F)(F)F)c2)(c2ccccc2)CC1 (mixture of isomers)	190	16	–
